The assay addresses T1, human PAH with the R408W mutation (A375 R408W cells) (Homo sapiens, UniProt P00439, R408W).
T1 construct: expressed in transfected cells
T1 sequence (P00439 1-452 R408W): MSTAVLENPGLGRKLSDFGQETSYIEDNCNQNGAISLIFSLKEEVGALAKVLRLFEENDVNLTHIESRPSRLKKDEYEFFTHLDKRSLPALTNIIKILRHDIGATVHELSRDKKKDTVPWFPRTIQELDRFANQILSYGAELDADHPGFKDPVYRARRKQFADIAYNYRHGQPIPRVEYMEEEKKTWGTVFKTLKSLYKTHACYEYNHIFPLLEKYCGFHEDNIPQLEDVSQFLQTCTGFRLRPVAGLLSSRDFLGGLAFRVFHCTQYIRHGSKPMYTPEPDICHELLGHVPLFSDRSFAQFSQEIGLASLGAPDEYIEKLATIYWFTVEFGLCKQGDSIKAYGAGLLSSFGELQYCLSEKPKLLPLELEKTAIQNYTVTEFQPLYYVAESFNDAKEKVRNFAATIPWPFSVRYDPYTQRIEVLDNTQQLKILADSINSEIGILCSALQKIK
The assay can be described thus: Cell Based Phenylalanine Flux Assay. As to conditions: A375 R408W cells; 24 hrs with compound, then 20 μM sepiapterin and 800 μM 13C9,15N-Phenylalanine for 4 hours; 13C-Tyrosine by LC-MS; average where tested multiple times. In outline:
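Puromycin-selected A375 line, lentiviral hPAH R408W; cmpd 24 h, 37 °C, 5% CO2, 0.5% DMSO; then 20 μM sepiapterin + 800 μM 13C9,15N-Phe, 4 h; media extracted in 80% MeCN; 13C-Tyr by LC-MS; AC50 from 10-pt curves.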
`O=C(c1ocnc1C(F)F)N1Cc2[nH]cnc2[C@H]1c1nc2ccccc2o1` [Example 921, (S)-(4-(benzo[d]oxazol-2-yl)-4,6-dihydropyrrolo[3,4-d]imidazol-5(1H)-yl)(4-(difluoromethyl)oxazol-5-yl)methanone]: the AC50 (usually the concentration at which the activity in the assay is half-maximal) was in the range of 1 to 5 µM.

Consider `O=C(c1ocnc1C(F)F)N1Cc2[nH]cnc2[C@@H]1c1nc2ccccc2o1` [Example 922, (R)-(4-(benzo[d]oxazol-2-yl)-4,6-dihydropyrrolo[3,4-d]imidazol-5(1H)-yl)(4-(difluoromethyl)oxazol-5-yl)methanone], for which the AC50 lay within 1 to 5 µM.

For the compound `Cn1nccc1C(=O)N1Cc2[nH]cnc2[C@H]1c1nc2ccccc2o1` [Example 924, (S)-(4-(benzo[d]oxazol-2-yl)-4,6-dihydropyrrolo[3,4-d]imidazol-5(1H)-yl)(1-methyl-1H-pyrazol-5-yl)methanone], the AC50 was in the range of 1 to 5 µM.

In the case of `O=C(c1cccnc1)N1Cc2[nH]cnc2[C@H]1c1nc2ccccc2o1` [Example 927, (S)-(4-(benzo[d]oxazol-2-yl)-4,6-dihydropyrrolo[3,4-d]imidazol-5(1H)-yl)(pyridin-3-yl)methanone], the AC50 is no less than 5 µM.

For `O=C(c1cnn2ccccc12)N1Cc2[nH]cnc2[C@H]1c1nc2ccccc2o1` [Example 929, (S)-(4-(benzo[d]oxazol-2-yl)-4,6-dihydropyrrolo[3,4-d]imidazol-5(1H)-yl)(pyrazolo[1,5-a]pyridin-3-yl)methanone], the AC50 lay within 1 to 5 µM.

For `Cn1cc(-c2nnc(C(=O)N3Cc4[nH]cnc4[C@H]3c3nc4ccccc4o3)o2)cn1` [Example 935, (S)-(4-(benzo[d]oxazol-2-yl)-4,6-dihydropyrrolo[3,4-d]imidazol-5(1H)-yl)(5-(1-methyl-1H-pyrazol-4-yl)-1,3,4-oxadiazol-2-yl)methanone], the AC50 was no less than 5 µM.

With `O=C(c1nnc(-c2ccccn2)o1)N1Cc2[nH]cnc2[C@H]1c1nc2ccccc2o1` [Example 937, (S)-(4-(benzo[d]oxazol-2-yl)-4,6-dihydropyrrolo[3,4-d]imidazol-5(1H)-yl)(5-(pyridin-2-yl)-1,3,4-oxadiazol-2-yl)methanone], the concentration at half-maximal activity (AC50) lay in the range of 1 to 5 µM.

As to `O=C(c1nnc(-c2ccccn2)o1)N1Cc2[nH]cnc2[C@@H]1c1nc2ccccc2o1` [Example 938, (R)-(4-(benzo[d]oxazol-2-yl)-4,6-dihydropyrrolo[3,4-d]imidazol-5(1H)-yl)(5-(pyridin-2-yl)-1,3,4-oxadiazol-2-yl)methanone], the AC50 was 1 to 5 µM.

For `Cc1ncoc1C(=O)N1Cc2[nH]cnc2[C@H]1c1nc2ccccc2o1` [Example 941, (S)-(4-(benzo[d]oxazol-2-yl)-4,6-dihydropyrrolo[3,4-d]imidazol-5(1H)-yl)(4-methyloxazol-5-yl)methanone], the AC50 fell in the range of 1 to 5 µM.

On to `Cc1ncoc1C(=O)N1Cc2[nH]cnc2[C@@H]1c1nc2ccccc2o1` [Example 942, (R)-(4-(benzo[d]oxazol-2-yl)-4,6-dihydropyrrolo[3,4-d]imidazol-5(1H)-yl)(4-methyloxazol-5-yl)methanone], for which the AC50 was in the range of 1 to 5 µM.

For `O=C(c1ocnc1C(F)(F)F)N1Cc2[nH]cnc2[C@@H]1c1nc2ccccc2o1` [Example 943, (R)-(4-(benzo[d]oxazol-2-yl)-4,6-dihydropyrrolo[3,4-d]imidazol-5(1H)-yl)(4-(trifluoromethyl)oxazol-5-yl)methanone], the half-maximal activity concentration (AC50) was 1 to 5 µM.

For the compound `O=C(c1ocnc1C(F)(F)F)N1Cc2[nH]cnc2[C@H]1c1nc2ccccc2o1` [Example 944, (S)-(4-(benzo[d]oxazol-2-yl)-4,6-dihydropyrrolo[3,4-d]imidazol-5(1H)-yl)(4-(trifluoromethyl)oxazol-5-yl)methanone], the AC50 was 1 to 5 µM.

As for `FC(F)(F)c1nnc(N2Cc3[nH]cnc3[C@@H]2c2nc3ccccc3o2)o1` [Example 945, (R)-2-(5-(5-(trifluoromethyl)-1,3,4-oxadiazol-2-yl)-1,4,5,6-tetrahydropyrrolo[3,4-d]imidazol-4-yl)benzo[d]oxazole], the AC50 was no less than 5 µM.

As to `FC(F)(F)c1nnc(N2Cc3[nH]cnc3[C@H]2c2nc3ccccc3o2)o1` [Example 946, (S)-2-(5-(5-(trifluoromethyl)-1,3,4-oxadiazol-2-yl)-1,4,5,6-tetrahydropyrrolo[3,4-d]imidazol-4-yl)benzo[d]oxazole], the AC50 lay within 1 to 5 µM.

Turning to `CC(C)(O)c1nc(C(F)F)c(C(=O)N2Cc3[nH]cnc3[C@H]2c2nc3ccccc3o2)o1` [Example 947, (S)-(4-(benzo[d]oxazol-2-yl)-4,6-dihydropyrrolo[3,4-d]imidazol-5(1H)-yl)(4-(difluoromethyl)-2-(2-hydroxypropan-2-yl)oxazol-5-yl)methanone], the half-maximal activity concentration (AC50) is no less than 5 µM.

In the case of `FC(F)(F)c1cnc(N2Cc3[nH]cnc3[C@H]2c2nc3ccccc3o2)nc1` [Example 949, (S)-2-(5-(5-(trifluoromethyl)pyrimidin-2-yl)-1,4,5,6-tetrahydropyrrolo[3,4-d]imidazol-4-yl)benzo[d]oxazole], the AC50 is 1 to 5 µM.

On to `O=C(c1ccnn1C(F)F)N1Cc2[nH]cnc2[C@H]1c1nc2ccccc2o1` [Example 951, (S)-(4-(benzo[d]oxazol-2-yl)-4,6-dihydropyrrolo[3,4-d]imidazol-5(1H)-yl)(1-(difluoromethyl)-1H-pyrazol-5-yl)methanone], for which the AC50 is 1 to 5 µM.

Consider `O=C(c1ccnn1C(F)(F)F)N1Cc2[nH]cnc2[C@H]1c1nc2ccccc2o1` [Example 953, (S)-(4-(benzo[d]oxazol-2-yl)-4,6-dihydropyrrolo[3,4-d]imidazol-5(1H)-yl)(1-(trifluoromethyl)-1H-pyrazol-5-yl)methanone], for which the half-maximal activity concentration (AC50) was 1 to 5 µM.

Consider “(R)-(3-(difluoromethyl)-1-methyl-1H-1,2,4-triazol-5-yl)(4-(4-methylbenzo[d]oxazol-2-yl)-6,7-dihydro-1H-imidazo[4,5-c]pyridin-5(4H)-yl)methanone [Example 814]”, for which the AC50 is no more than 0.5 µM.

In the case of “(R)-(3-chloro-1-methyl-1H-1,2,4-triazol-5-yl)(4-(6-fluorobenzo[d]oxazol-2-yl)-6,7-dihydro-1H-imidazo[4,5-c]pyridin-5(4H)-yl)methanone [Example 344]”, the concentration at half-maximal activity (AC50) fell in the range of 1 to 5 µM.

Turning to “(R)-(4-(5,7-difluorobenzo[d]oxazol-2-yl)-6,7-dihydro-1H-imidazo[4,5-c]pyridin-5(4H)-yl)(5-(1-methyl-1H-pyrazol-4-yl)-1,3,4-oxadiazol-2-yl)methanone [Example 610]”, the concentration at half-maximal activity (AC50) lay within 1 to 5 µM.

Consider “(R)-(4-(5-fluorobenzo[d]oxazol-2-yl)-6,7-dihydro-1H-imidazo[4,5-c]pyridin-5(4H)-yl)(6-(methoxymethyl)pyrazolo[1,5-a]pyridin-3-yl)methanone [Example 30]”, for which the AC50 was no less than 5 µM.

For “(R)-(4-(deuterium)-2-(2-hydroxypropan-2-yl)oxazol-5-yl)(4-fluoro-4-(5-fluorobenzo[d]oxazol-2-yl)-6,7-dihydro-1H-imidazo[4,5-c]pyridin-5(4H)-yl)methanone [Example 906]”, the half-maximal activity concentration (AC50) was no less than 5 µM.

For the origin of these results see patent US20250171437A1 (Agios Pharmaceuticals,Inc., priority 2022, published 2025).
